“And” between values parts separate entries of the source, which are not always exact repeats. Identical values can stand only once. Like-named read-outs stand apart in the source and are kept apart here.
How the values were obtained:
[1] = system: mouse mammary tumor 6WI-1; type: in vivo
Method: A second assay was also used to assess the percent of inhibition for the various fragments. […] The procedure of Parsons et al. was used in this assay (see Parsons et al., Cancer investigation 4(2):109-126 (1986)). The mouse mammary tumor 6WI-1 normally kills animals within 12-15 days. In this assay, the tumor cells were injected into the body cavity of live mice. […] The inhibition of tumor growth is indicated by percentage. […] Unless otherwise indicated, the dose of peptide or peptide fragment was injected into the body cavity of the mice on day 1 and every day for 15 days. Percent inhibition was measured on day 15.

[2] = system: diethylstilbestrol (DES)-stimulated growth of mouse uterus; experiment: In vivo wet weight bioassay, inhibition of DES-stimulated growth of uteri; details: for Percent Growth Inhibition: immature mouse uterus
Method: An in vivo wet weight bioassay measuring inhibition of diethylstilbestrol (DES)-stimulated growth was also performed. The procedure of Mizejewski et al. (see previous citations) was used for the wet weight assay. The applicability of the wet weight bioassay for measuring DES-stimulated growth of uteri is disclosed by Korach, K. S. et al., "Estrogenic activity in vivo and in vitro of some diethylstilbestrol metabolites and analogs", Proc Natl Acad Sci USA 75:468-471 (1978).
(§1) Briefly, the synthesized powdered peptide was reconstituted in saline (1 mg/ml) to form a stock solution of the GIP. The stock solution was appropriately diluted to provide dosages of 10 ng to 100 μg/mouse. 0.1 ml of the appropriately diluted GIP was injected intraperitoneally into 15-18 day old Nya:NYLAR female mice. Control mice were injected with saline. 1 hour after this first injection, a DES challenge of 0.5 micrograms of DES in 0.1 ml saline was given to determine the change in uterine responsiveness to DES resulting from exposure to the first injection. 23 hours after the second injection, uteri were dissected, trimmed free of connective tissue and immediately weighed. The uterine wet weights were normalized to mouse body weight (mg uterine weight/g of body weight) to compensate for differences in body weight among litters of the same age. Percent inhibition of DES-stimulated uterine growth was calculated as described by Mizejewski et al. (1983).

[3] = system: hydrocortisone (HC)-stimulated growth of mouse spleen; experiment: In vivo wet weight bioassay, inhibition of HC-stimulated growth of the spleen; details: for Percent Growth Inhibition: immature mouse spleen
Method: An in vivo wet weight bioassay measuring inhibition of hydrocortisone (HC)-stimulated growth of the spleen was also performed. The procedure of Mizejewski et al. (see previous citations) was used for the wet weight assay. The applicability of the wet weight bioassay for measuring HC-stimulated growth of the spleen is disclosed by el-Fouhil, A. F. and Turkall, R. M., "Effect of alternate-day hydrocortisone therapy on the immunologically immature rat. I: Effect on blood cell count, immunoglobulin concentrations, and body and organ weights", Toxicologic Pathology 21(4):377-382 (1993).
as §1, with “of 500” for “of 10”, “saline. […]” for “saline. 1 hour after this first injection, a DES challenge of 0.5 micrograms of DES in 0.1 ml saline was given to determine the change in uterine responsiveness to DES resulting from exposure to the first injection.”, “injection, spleens” for “injection, uteri”, “The spleenic” for “The uterine”, “(mg spleenic” for “(mg uterine”, “of HC-stimulated spleenic” for “of DES-stimulated uterine”

Leu Ser Glu Asp Lys Leu Leu Ala Cys Gly Glu Gly Ala Ala Asp Ile ile Ile Gly His Leu Cys Ile Arg His Glu Met Thr Pro Val Ash Pro Gly Val (LSEDKLLACGEGAADIIIGHLCIRHEMTPVNPGV) [GIP]
Percent Growth Inhibition ([1]; adult mouse, 100 μg per mouse daily for 15 days, 0.3-1.0×10^6 tumor cells per mouse, day 15): 97%
Percent Growth Inhibition ([1]; adult mouse, 100 μg per mouse daily for 15 days, 1.1-4.0×10^6 tumor cells per mouse, day 15): 79%
Percent Growth Inhibition ([1]; adult mouse, 1.1-4.0 × 10^6 tumor cells mixed with 100 μg of the peptide, injected only on day 1): 85%
Percent Growth Inhibition ([1]; immature mouse, 1000 μg per mouse daily for 15 days, 0.3-1.0×10^6 tumor cells per mouse, day 15): 57%
Percent Growth Inhibition ([1]; immature mouse, 1000 μg per mouse daily for 15 days, 1.1-4.0×10^6 tumor cells per mouse, day 15): 49%
inhibition of DES-induced growth (range over Table 3) ([2]; 10ng to 100 μg/mouse): 14-27%
Percent Growth Inhibition ([2]; 10 ng per mouse): 27%
Percent Growth Inhibition ([2]; 100 ng per mouse): 25%
Percent Growth Inhibition ([2]; 800 ng per mouse i.p., DES 0.5 micrograms): 18%
Percent Growth Inhibition ([2]; 1 μg per mouse): 22%
Percent Growth Inhibition ([2]; 10 μg per mouse): 20%
Percent Growth Inhibition ([2]; 100 μg per mouse): 14%
most effective dose ([2]; immature uterus, produced 27% growth inhibition): 10 ng/mouse
inhibition of HC-induced growth (range over Table 4) ([3]; 500 ng to 100 μg/mouse): 24-100%
Percent Growth Inhibition ([3]; 1.0 μg per mouse): 100%
Percent Growth Inhibition ([3]; 10.0 μg per mouse): 76%
Percent Growth Inhibition ([3]; 100 μg per mouse, 1.0 μg of HC instead of 0.5 μg): 24% and 34%
Percent Growth Inhibition ([3]; 100 μg per mouse, HC 0.5 micrograms): 67%
most effective dose ([3]; immature spleen, produced 100% growth inhibition): 1.0 μg/mouse

Reference: US5707963A, “Methods of using growth inhibitory peptides” (Health Research, Incorporated, priority 1996, dated 1998)
